Tested on: Vasopressin V2
Experiment: Vasopressin V2 agonist effects of test compounds in normal conscious water-loaded rats
Format: in vivo
Settings: Sprague-Dawley (CD) rats, oral 10 mg/kg, urine collected for four hours; for Osmolality (% Increase): change in osmolality as percent of control; for Urine Volume (% decrease): vs. control
Procedure: Vasopressin V2 Agonist Effects of Test Compounds in Normal Conscious Water-Loaded Rats:
On the day of test, rats were placed individually into metabolic cages equipped with devices to separate the feces from the urine and containers for collection of urine. Test compound or reference agent was given at an oral dose of 10 mg/kg in a volume of 10 ml /kg. […] Thirty minutes after dosing the test compound, rats were gavaged with water at 30 ml /kg into the stomach using a feeding needle. During the test, rats were not provided with water or food. Urine was collected for four hours after dosing of the test compound. At the end of four hours, urine volume was measured. […] Determinations of Na^+, K^+ and Cl^- ion were carried out using ion specific electrodes in a Beckman SYNCHRON EL-ISE Electrolyte System analyzer. […] In the screening test, two rats were used for each compound. If the difference in the urine volume of the two rats was greater than 50%, a third rat was used.

Cc1cnn(-c2ccc(C(=O)N3Cc4cccn4Cc4ccccc43)c(C(F)(F)F)c2)c1 [Example 3, [4-(4-Methyl-pyrazol-1-yl)-2-trifluoromethyl-phenyl]-(5H,11H-pyrrolo[2,1-c][1,4]benzodiazepin-10-yl)-methanone]
Osmolality (% Increase): 240% | Urine Volume (% decrease): 58%

O=C(c1ccc(-n2cccn2)cc1C(F)(F)F)N1Cc2cccn2Cc2ccccc21 [Example 4, (4-Pyrazol-1-yl-2-trifluoromethyl-phenyl)-(5H,11H-pyrrolo[2,1-c][1,4]benzodiazepin-10-yl)-methanone]
Osmolality (% Increase): 225% | Urine Volume (% decrease): 57%

O=C(c1ccc(-n2ccc(C3CC3)n2)cc1C(F)(F)F)N1Cc2cccn2Cc2ccccc21 [Example 5, [4-(3-Cyclopropyl-pyrazol-1-yl)-2-trifluoromethy-phenyl]-(5H,11H-pyrrolo[2,1-c][1,4]benzodiazepin-10-yl)-methanone]
Osmolality (% Increase): 231% | Urine Volume (% decrease): 56%

Cc1cn(-c2ccc(C(=O)N3Cc4cccn4Cc4ccccc43)c(C(F)(F)F)c2)cn1 [Example 6, [4-(4-Methyl-imidazol-1-yl)-2-trifluoromethyl-phenyl]-(5H,11H-pyrrolo[2,1-c][1,4]benzodiazepin-10-yl)-methanone]
Osmolality (% Increase): 270% | Urine Volume (% decrease): 58%

O=C(c1ccc(-n2cncn2)cc1C(F)(F)F)N1Cc2cccn2Cc2ccccc21 [Example 7, (5H,11H-Pyrrolo[2,1-c][1,4]benzodiazepin-10-yl)-(4-[1,2,4]triazol-1-yl-2-trifluoromethylphenyl)-methanone]
Osmolality (% Increase): 137% | Urine Volume (% decrease): 13%

Cc1ccn(-c2ccc(C(=O)N3Cc4cccn4Cc4ccccc43)c(Cl)c2)n1 [Example 9A]
Osmolality (% Increase): 325% | Urine Volume (% decrease): 70%

Cc1ccnn1-c1ccc(C(=O)N2Cc3cccn3Cc3ccccc32)c(Cl)c1 [Example 9B]
Osmolality (% Increase): 168% | Urine Volume (% decrease): 21%

Cc1cnn(-c2ccc(C(=O)N3Cc4cccn4Cc4ccccc43)c(Cl)c2)c1 [Example 11]
Osmolality (% Increase): 285% | Urine Volume (% decrease): 70%

Cc1cn(-c2ccc(C(=O)N3Cc4cccn4Cc4ccccc43)c(Cl)c2)cn1 [Example 12, [2-Chloro-4-(4-methyl-imidazol-1-yl)-phenyl]-(5H,11H-pyrrolo[2,1-c][1,4]benzodiazepin-10-yl)-methanone]
Osmolality (% Increase): 330% | Urine Volume (% decrease): 69%

O=C(c1ccc(-n2ccc(C(F)(F)F)n2)cc1Cl)N1Cc2cccn2Cc2ccccc21 [Example 13, [2-Chloro-4-(3-trifluoromethyl-pyrazol-1-yl)-phenyl]-(5H,11H-pyrrolo[2,1-c][1,4]benzodiazepin-10-yl)-methanone]
Osmolality (% Increase): 229% | Urine Volume (% decrease): 50%

O=C(c1ccc(-n2cncn2)cc1Cl)N1Cc2cccn2Cc2ccccc21 [Example 14, [2-Chloro-4-(1,2,4-triazol-1-yl)-phenyl]-(5H,11H-pyrrolo[2,1-c][1,4]benzodiazepin-10-yl)-methanone]
Osmolality (% Increase): 406% | Urine Volume (% decrease): 86%

O=C(c1ccc(-n2cccc2)cc1Cl)N1Cc2cccn2Cc2ccccc21 [Example 15, (2-Chloro-4-pyrrol-1-yl-phenyl)-(5H,11H-pyrrolo[2,1-c][1,4]benzodiazepin-10-yl)-methanone]
Osmolality (% Increase): 38% | Urine Volume (% decrease): 47%

O=C(c1ccc(-n2cccn2)cc1Cl)N1Cc2cccn2Cc2ccccc21 [Example 16, (2-Chloro-4-pyrazol-1-yl-phenyl)(5H,11H-Pyrrolo[2,1-c][1,4]benzodiazepin-10-yl)-methanone]
Osmolality (% Increase): 400% | Urine Volume (% decrease): 88%

Cc1ccn(-c2ccc(C(=O)N3Cc4ccc(C)n4Cc4ccccc43)c(Cl)c2)n1 [Example 18, [2-Chloro-4-(3-methylpyrazol-1-yl)-phenyl]-(3-methyl-5H,11H-pyrrolo[2,1-c][1,4]benzodiazepin-10-yl)-methanone]
Osmolality (% Increase): 214% | Urine Volume (% decrease): 52%

Cc1cnn(-c2ncc(C(=O)N3Cc4cccn4Cc4ccccc43)c(C(F)(F)F)n2)c1 [Example 21, [2-(4-Methyl-pyrazol-1-yl)-4-trifluoromethyl-pyrimidin-5-yl]-(5H,11H-pyrrolo[2,1-c][1,4]benzodiazepin-10-yl)-methanone]
Osmolality (% Increase): 181% | Urine Volume (% decrease): 49%

CC(=O)c1ccc(C(=O)N2Cc3cccn3Cc3ccccc32)cc1 [Example 22, 1-[4-(5H,11H-Pyrrolo[2,1-c][1,4]benzodiazepine-10-carbonyl)-phenyl]-ethanone]
Osmolality (% Increase): 322% | Urine Volume (% decrease): 80%

O=C(c1ccc(-c2cc[nH]n2)cc1)N1Cc2cccn2Cc2ccccc21 [Example 24, [4-(1H-Pyrazol-3-yl)-phenyl]-(5H,11H-pyrrolo[2,1-c][1,4]benzodiazepin-10-yl)-methanone]
Osmolality (% Increase): 159% | Urine Volume (% decrease): 47%

Cn1ccc(-c2ccc(C(=O)N3Cc4cccn4Cc4ccccc43)cc2)n1 [Example 25, [4-(1-Methyl-1H-pyrazolyl-3-yl)-phenyl]-(5H,11H-pyrrolo[2,1-c][1,4]-benzodiazepin-10-yl)-methanone]
Osmolality (% Increase): 979% | Urine Volume (% decrease): 87%

CCn1ccc(-c2ccc(C(=O)N3Cc4cccn4Cc4ccccc43)cc2)n1 [Example 26, [4-(1-Ethyl-1H-pyrazol-3-yl)-phenyl]-(5H,11H-pyrrolo[2,1-c][1,4]-benzodiazepin-10-yl)-methanone]
Osmolality (% Increase): 279% | Urine Volume (% decrease): 54%

CCCn1ccc(-c2ccc(C(=O)N3Cc4cccn4Cc4ccccc43)cc2)n1 [Example 27, [4-(1-Propyl-1H-pyrazol-3-yl)-phenyl]-(5H,11H-pyrrolo[2,1-c][1,4]-benzodiazepin-10-yl)-methanone]
Osmolality (% Increase): 183% | Urine Volume (% decrease): 76%

CCCCn1ccc(-c2ccc(C(=O)N3Cc4cccn4Cc4ccccc43)cc2)n1 [Example 28, [4-(1-Butyl-1H-pyrazol-3-yl)-phenyl]-(5H,11H-pyrrolo[2,1-c][1,4]-benzodiazepin-10-yl)-methanone]
Osmolality (% Increase): 37% | Urine Volume (% decrease): 75%

COCn1ccc(-c2ccc(C(=O)N3Cc4cccn4Cc4ccccc43)cc2)n1 [Example 29, [4-(1-methoxymethyl-1H-pyrazol-3-yl)-phenyl]-(5H,11H-pyrrolo[2,1-c][1,4]-benzodiazepin-10-yl)-methanone]
Osmolality (% Increase): 305% | Urine Volume (% decrease): 66%

CCC(=O)n1ccc(-c2ccc(C(=O)N3Cc4cccn4Cc4ccccc43)cc2)n1 [Example 31, 1-{3-[4-(5H,11H-Pyrrolo[2,1-c][1,4]benzodiazepine-10-carbonyl)-phenyl]-pyrazol-1-yl}-propan-1-one]
Osmolality (% Increase): 298% | Urine Volume (% decrease): 72%

O=C(c1ccc(-c2ccn(C(=O)C3CC3)n2)cc1)N1Cc2cccn2Cc2ccccc21 [Example 32, [4-(1-Cyclopropanecarbonyl-1H-pyrazol-3-yl)-phenyl]-(5H,11H-pyrrolo[2,1-c][1,4]benzodiazepin-10-yl)-methanone]
Osmolality (% Increase): 373% | Urine Volume (% decrease): 77%

CCCC(=O)n1ccc(-c2ccc(C(=O)N3Cc4cccn4Cc4ccccc43)cc2)n1 [Example 33, 1-{3-[4-(5H,11H-Pyrrolo[2,1-c][1,4]benzodiazepine-10-carbonyl)-phenyl]-pyrazol-1-yl}-butan-1-one]
Osmolality (% Increase): 362% | Urine Volume (% decrease): 68%

Cc1ccc(F)cc1C(=O)n1ccc(-c2ccc(C(=O)N3Cc4cccn4Cc4ccccc43)cc2)n1 [Example 35, {4-[1-(5-Fluoro-2-methyl-benzoyl)-1H-pyrazol-3-yl]-phenyl}-(5H,11H-pyrrolo[2,1-c][1,4]benzodiazepin-10-yl)-methanone]
Osmolality (% Increase): 308% | Urine Volume (% decrease): 63%

O=C(c1ccc(-c2ccn(C(=O)c3ccc(F)cc3Cl)n2)cc1)N1Cc2cccn2Cc2ccccc21 [Example 37, {4-[1-(2-Chloro-4-fluoro-benzoyl)-1H-pyrazol-3-yl]-phenyl}-(5H,11H-pyrrolo[2,1-c][1,4]benzodiazepin-10-yl]methanone]
Osmolality (% Increase): 370% | Urine Volume (% decrease): 71%

O=C(c1ccc(-c2ccn(C(=O)Cc3ccc(Cl)cc3Cl)n2)cc1)N1Cc2cccn2Cc2ccccc21 [Example 39, 2-(2,4-Dichloro-phenyl)-1-{3-[4-(5H,11H-pyrrolo[2,1-c][1,4]benzodiazepine-10-carbonyl)-phenyl]-pyrazol-1-yl}-ethanone]
Osmolality (% Increase): 253% | Urine Volume (% decrease): 69%

— patent EP1000062B1, “TRICYCLIC VASOPRESSIN AGONISTS” (Wyeth, priority 1997, dated 1999)
